Results published in patent US9919066B2, “Electroporation of tissue products” (LifeCell Corporation, priority 2013, dated 2018).

Columns and labels:
[1] = H&E histological examination of porcine dermis after electroporation; conditions: 0.2% PAA
Experimental: FIG. 1A-C show hematoxylin and eosin (H&E) staining of 1 cm by 1 cm samples of porcine dermis after exposure for 15 milliseconds to one electrical pulse of 0V (FIG. 1A), 40V (FIG. 1B), or 80V (FIG. 1C), according to certain embodiments of the present disclosure.
(§1) To determine the impact of pulse voltage on bacteria present on tissue samples, 1 cm by 1 cm pieces of porcine dermis (1 mm thickness) were electroporated in 2 ml of 0.2% peracetic acid (PAA) at three different pulse voltages: 0V, 40V and 80V. The 0V samples were used as a control condition. Electroporation plates (1 cm by 2 cm conducting metal plates) were set 2 mm apart and a 1 mm thick piece of tissue was placed between them. Electrical pulses were delivered for 10 ms. All conditions were tested in triplicates.
The tissue samples exposed to 40V and 80V pulse voltages had 0 bacteria. […] Porcine dermis was also stained using hematoxylin and eosin (H&E).

[2] = tested on: bacteria present on tissue samples; assay: Effect of pulse voltage on bacteria counts of porcine dermis electroporated in PAA; assay type: cell-based; conditions: 0.2% PAA; for bacteria count: 10 ms, triplicates
Experimental: as §1
Following electroporation each piece of tissue was removed and rinsed in a PAA neutralizing wash for 5 minutes and then placed in 10 ml of phosphate buffered saline (PBS). The purpose of the neutralizing wash was to prevent further bacterial kill from residual PAA following electroporation that could confound the results.
Stomaching was used to extract the bacteria from each piece of tissue and bacteria counts were performed following incubation of culture plates for 2 days at 37° C. Stomaching is a mechanical extraction method used to remove microorganisms from samples of foods, fabrics, swabs, or other soft materials such as human or animal tissue. […] The resulting compression and shearing forces elute deep-seated bacteria. Once the agitation process is completed, samples of the eluent are taken for microbial enumeration and subsequent identification.

[3] = tested on: bioburden (bacteria) on porcine dermis; assay: Effect of pulse length on bioburden of porcine dermis electroporated in PAA; assay type: cell-based; conditions: 0.2% PAA
Experimental: […] 0 ms pulses were used as a control condition. All conditions were tested in triplicates.
Electroporation plates (1 cm by 2 cm conducting metal plates) were set 2 mm apart and a 1 mm thick piece of tissue was placed between them. Pulse voltage was set at 80V. Following electroporation each piece of tissue was removed and rinsed in a PAA neutralizing wash for 5 minutes and then placed in 10 ml of PBS.
Stomaching was used to extract the bacteria from each piece of tissue and bacteria counts were performed following incubation of culture plates for 2 days at 37° C. […] Minimal bacterial colony forming units (CFU) were detected on tissue samples following 15 ms pulse.

CC(=O)OO [PAA, peracetic acid]
changes in the collagen structure (H&E histology) ([1]; exposure to 40 volts): no detectable change
changes in the collagen structure (H&E histology) ([1]; exposure to 80 volts): potential changes in the collagen structure
bacterial colonies ([2]; 0V (control condition, no pulse)): too numerous to count
bacteria count ([2]; 40V pulse): 0
bacteria count ([2]; 80V pulse): 0
Viable Cell Count ([3]; 80V, pulse length 1 ms, 100 pulses): 430 CFU
Viable Cell Count ([3]; 80V, pulse length 5 ms, 1 pulse): 300 CFU
Viable Cell Count ([3]; 80V, pulse length 10 ms, 1 pulse): 140 CFU
Viable Cell Count ([3]; pulse length 0 ms, no pulses (control condition)): 26000 CFU
